#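 Cells were grown in 96-well plates and exposed to each compound for 48 hours at five concentrations; endpoints were interpolated linearly between bracketing concentrations, or set to the highest concentration if not reached. GI50 = concentration required for 50% inhibition of growth. TGI marks complete inhibition of growth.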
# Key:
# Assay in all cases: NCI tumour cell line growth inhibition, 48 h
# NCI-H522 lung = tested on: NCI-H522 lung
# SF-295 CNS = tested on: SF-295 CNS
# SR leukemia = tested on: SR leukemia
# LOX IMVI melanoma = tested on: LOX IMVI melanoma
# HCC-2998 colon = tested on: HCC-2998 colon
# IGROV1 ovarian = tested on: IGROV1 ovarian
# MDA-MB-231 breast = tested on: MDA-MB-231 breast
# A549 NSCLC = tested on: A549 NSCLC
# TK-10 renal = tested on: TK-10 renal
# SK-MEL-2 melanoma = tested on: SK-MEL-2 melanoma
# MDA-MB-435 = tested on: MDA-MB-435
# HS 578T breast = tested on: HS 578T breast
# A498 renal = tested on: A498 renal
# NCI-H460 lung = tested on: NCI-H460 lung
# MOLT-4 leukemia = tested on: MOLT-4 leukemia
# SW-620 colon = tested on: SW-620 colon
# OVCAR-4 ovarian = tested on: OVCAR-4 ovarian
# HCT-116 colon = tested on: HCT-116 colon
# SK-MEL-5 melanoma = tested on: SK-MEL-5 melanoma
# M14 melanoma = tested on: M14 melanoma
# EKVX NSCLC = tested on: EKVX NSCLC
# 786-0 renal = tested on: 786-0 renal
# CAKI-1 renal = tested on: CAKI-1 renal
# HOP-62 NSCLC = tested on: HOP-62 NSCLC
# UACC-257 melanoma = tested on: UACC-257 melanoma
# T-47D breast = tested on: T-47D breast
# RPMI-8226 leukemia = tested on: RPMI-8226 leukemia
# HOP-92 NSCLC = tested on: HOP-92 NSCLC
# SNB-75 CNS = tested on: SNB-75 CNS
# COLO 205 colon = tested on: COLO 205 colon
# OVCAR-8 ovarian = tested on: OVCAR-8 ovarian
# K-562 leukemia = tested on: K-562 leukemia
# SN12C renal = tested on: SN12C renal
# NCI/ADR-RES ovarian = tested on: NCI/ADR-RES ovarian
# NCI-H23 lung = tested on: NCI-H23 lung
# OVCAR-5 ovarian = tested on: OVCAR-5 ovarian
# SF-539 CNS = tested on: SF-539 CNS
# HCT-15 colon = tested on: HCT-15 colon
# SK-OV-3 ovarian = tested on: SK-OV-3 ovarian
# RXF 393 renal = tested on: RXF 393 renal
# DU-145 prostate = tested on: DU-145 prostate
# SNB-19 CNS = tested on: SNB-19 CNS
# PC-3 prostate = tested on: PC-3 prostate
# ACHN renal = tested on: ACHN renal
# SF-268 CNS = tested on: SF-268 CNS
# HT29 colon = tested on: HT29 colon
# MCF7 breast = tested on: MCF7 breast
# UACC-62 melanoma = tested on: UACC-62 melanoma
# KM12 colon = tested on: KM12 colon
# CCRF-CEM leukemia = tested on: CCRF-CEM leukemia
# UO-31 renal = tested on: UO-31 renal
# MALME-3M melanoma = tested on: MALME-3M melanoma
# BT-549 breast = tested on: BT-549 breast
# U251 CNS = tested on: U251 CNS
# OVCAR-3 ovarian = tested on: OVCAR-3 ovarian
# NCI-H226 lung = tested on: NCI-H226 lung
# SK-MEL-28 melanoma = tested on: SK-MEL-28 melanoma
# HL-60(TB) leukemia = tested on: HL-60(TB) leukemia
smiles,measurement,setting,value
O=C1c2ccccc2NC2C(O)c3ccccc3N12 (stereo not drawn),TGI,NCI-H522 lung,> 100 µM
same,TGI,SF-295 CNS,> 100 µM
same,TGI,SR leukemia,> 100 µM
same,TGI,LOX IMVI melanoma,> 100 µM
same,TGI,HCC-2998 colon,> 100 µM
same,TGI,IGROV1 ovarian,> 100 µM
same,TGI,MDA-MB-231 breast,> 100 µM
same,TGI,A549 NSCLC,61.5 µM
same,TGI,TK-10 renal,> 100 µM
same,TGI,SK-MEL-2 melanoma,> 100 µM
same,TGI,MDA-MB-435,31.9 µM
same,TGI,HS 578T breast,> 100 µM
same,TGI,A498 renal,37.9 µM
same,TGI,NCI-H460 lung,55.7 µM
same,TGI,MOLT-4 leukemia,58.7 µM
same,TGI,SW-620 colon,> 100 µM
same,TGI,OVCAR-4 ovarian,> 100 µM
same,TGI,HCT-116 colon,> 100 µM
same,TGI,SK-MEL-5 melanoma,> 100 µM
same,TGI,M14 melanoma,> 100 µM
same,TGI,EKVX NSCLC,> 100 µM
same,TGI,786-0 renal,> 100 µM
same,TGI,CAKI-1 renal,> 100 µM
same,TGI,HOP-62 NSCLC,> 100 µM
same,TGI,UACC-257 melanoma,37.7 µM
same,TGI,T-47D breast,> 100 µM
same,TGI,RPMI-8226 leukemia,54.3 µM
same,TGI,HOP-92 NSCLC,> 100 µM
same,TGI,SNB-75 CNS,> 100 µM
same,TGI,COLO 205 colon,> 100 µM
same,TGI,OVCAR-8 ovarian,> 100 µM
same,TGI,K-562 leukemia,> 100 µM
same,TGI,SN12C renal,> 100 µM
same,TGI,NCI/ADR-RES ovarian,> 100 µM
same,TGI,NCI-H23 lung,84.3 µM
same,TGI,OVCAR-5 ovarian,> 100 µM
same,TGI,SF-539 CNS,> 100 µM
same,TGI,HCT-15 colon,> 100 µM
same,TGI,SK-OV-3 ovarian,> 100 µM
same,TGI,RXF 393 renal,> 100 µM
same,TGI,DU-145 prostate,> 100 µM
same,TGI,SNB-19 CNS,> 100 µM
same,TGI,PC-3 prostate,> 100 µM
same,TGI,ACHN renal,> 100 µM
same,TGI,SF-268 CNS,> 100 µM
same,TGI,HT29 colon,> 100 µM
same,TGI,MCF7 breast,> 100 µM
same,TGI,UACC-62 melanoma,56.8 µM
same,TGI,KM12 colon,> 100 µM
same,TGI,CCRF-CEM leukemia,54.6 µM
same,TGI,UO-31 renal,> 100 µM
same,TGI,MALME-3M melanoma,> 100 µM
same,TGI,BT-549 breast,> 100 µM
same,TGI,U251 CNS,> 100 µM
same,TGI,OVCAR-3 ovarian,> 100 µM
same,TGI,NCI-H226 lung,> 100 µM
Cc1ccc(C2=Nc3c(N)ncnc3NC(c3cccc(Nc4ccnc5cc(C(F)(F)F)ccc45)c3)C2)cc1 (stereo not drawn),GI50,NCI-H522 lung,2.27 µM
same,TGI,NCI-H522 lung,7.51 µM
same,GI50,SF-295 CNS,2.33 µM
same,TGI,SF-295 CNS,6.88 µM
same,GI50,LOX IMVI melanoma,2.34 µM
same,TGI,LOX IMVI melanoma,6.13 µM
same,GI50,HCC-2998 colon,2.59 µM
same,TGI,HCC-2998 colon,10.5 µM
same,GI50,IGROV1 ovarian,4.93 µM
same,TGI,IGROV1 ovarian,90.9 µM
same,GI50,MDA-MB-231 breast,2.59 µM
same,TGI,MDA-MB-231 breast,8.44 µM
same,GI50,SK-MEL-28 melanoma,3.81 µM
same,TGI,SK-MEL-28 melanoma,31.4 µM
same,GI50,A549 NSCLC,3.63 µM
same,TGI,A549 NSCLC,13.2 µM
same,GI50,TK-10 renal,6.89 µM
same,TGI,TK-10 renal,80.7 µM
same,GI50,SK-MEL-2 melanoma,2.15 µM
same,TGI,SK-MEL-2 melanoma,5.15 µM
same,GI50,MDA-MB-435,1.94 µM
same,TGI,MDA-MB-435,4.84 µM
same,GI50,HS 578T breast,4.01 µM
same,TGI,HS 578T breast,> 100 µM
same,GI50,A498 renal,1.76 µM
same,TGI,A498 renal,6.81 µM
same,GI50,NCI-H460 lung,3.07 µM
same,TGI,NCI-H460 lung,10.5 µM
same,GI50,MOLT-4 leukemia,3.4 µM
same,TGI,MOLT-4 leukemia,> 100 µM
same,GI50,SW-620 colon,2.87 µM
same,TGI,SW-620 colon,11.3 µM
same,GI50,OVCAR-4 ovarian,4.33 µM
same,TGI,OVCAR-4 ovarian,> 100 µM
same,GI50,HCT-116 colon,2.86 µM
same,TGI,HCT-116 colon,10.5 µM
same,GI50,SK-MEL-5 melanoma,2.05 µM
same,TGI,SK-MEL-5 melanoma,4.24 µM
same,GI50,M14 melanoma,2.11 µM
same,TGI,M14 melanoma,5.29 µM
same,GI50,EKVX NSCLC,3.95 µM
same,TGI,EKVX NSCLC,> 100 µM
same,GI50,786-0 renal,3.03 µM
same,TGI,786-0 renal,11.2 µM
same,GI50,CAKI-1 renal,3.15 µM
same,TGI,CAKI-1 renal,15.2 µM
same,GI50,HOP-62 NSCLC,5.38 µM
same,TGI,HOP-62 NSCLC,52.1 µM
same,GI50,UACC-257 melanoma,10.2 µM
same,TGI,UACC-257 melanoma,84.9 µM
same,GI50,T-47D breast,4.45 µM
same,TGI,T-47D breast,> 100 µM
same,GI50,RPMI-8226 leukemia,2.17 µM
same,TGI,RPMI-8226 leukemia,6.05 µM
same,GI50,HL-60(TB) leukemia,2.95 µM
same,TGI,HL-60(TB) leukemia,74.7 µM
same,GI50,HOP-92 NSCLC,2.54 µM
same,TGI,HOP-92 NSCLC,9.75 µM
same,GI50,COLO 205 colon,2.64 µM
same,TGI,COLO 205 colon,7.03 µM
same,GI50,OVCAR-8 ovarian,5.89 µM
same,TGI,OVCAR-8 ovarian,76.7 µM
same,GI50,K-562 leukemia,3.44 µM
same,TGI,K-562 leukemia,> 100 µM
same,GI50,SN12C renal,4.77 µM
same,TGI,SN12C renal,> 100 µM
same,GI50,NCI/ADR-RES ovarian,2.96 µM
same,TGI,NCI/ADR-RES ovarian,10.2 µM
same,GI50,NCI-H23 lung,3.6 µM
same,TGI,NCI-H23 lung,16.7 µM
same,GI50,OVCAR-5 ovarian,4.96 µM
same,TGI,OVCAR-5 ovarian,> 100 µM
same,GI50,SF-539 CNS,2.68 µM
same,TGI,SF-539 CNS,9.26 µM
same,GI50,HCT-15 colon,2.82 µM
same,TGI,HCT-15 colon,16.5 µM
same,GI50,SK-OV-3 ovarian,5.93 µM
same,TGI,SK-OV-3 ovarian,51 µM
same,GI50,RXF 393 renal,1.69 µM
same,TGI,RXF 393 renal,3.55 µM
same,GI50,DU-145 prostate,6.83 µM
same,TGI,DU-145 prostate,> 100 µM
same,GI50,SNB-19 CNS,6.71 µM
same,TGI,SNB-19 CNS,> 100 µM
same,GI50,PC-3 prostate,2.8 µM
same,TGI,PC-3 prostate,12.5 µM
same,GI50,ACHN renal,4.69 µM
same,TGI,ACHN renal,> 100 µM
same,GI50,SF-268 CNS,4.47 µM
same,TGI,SF-268 CNS,47.1 µM
same,GI50,HT29 colon,2.45 µM
same,TGI,HT29 colon,7.29 µM
same,GI50,MCF7 breast,2.41 µM
same,TGI,MCF7 breast,11.5 µM
same,GI50,UACC-62 melanoma,4.78 µM
same,TGI,UACC-62 melanoma,26.8 µM
same,GI50,KM12 colon,3.26 µM
same,TGI,KM12 colon,13.3 µM
same,GI50,CCRF-CEM leukemia,3.85 µM
same,TGI,CCRF-CEM leukemia,> 100 µM
same,GI50,UO-31 renal,2.79 µM
same,TGI,UO-31 renal,22.8 µM
same,GI50,MALME-3M melanoma,3 µM
same,TGI,MALME-3M melanoma,23.1 µM
same,GI50,BT-549 breast,2.83 µM
same,TGI,BT-549 breast,13.4 µM
same,GI50,U251 CNS,3.73 µM
same,TGI,U251 CNS,15.1 µM
same,GI50,OVCAR-3 ovarian,3.47 µM
same,TGI,OVCAR-3 ovarian,15.1 µM
same,GI50,NCI-H226 lung,15.2 µM
same,TGI,NCI-H226 lung,> 100 µM
